In PMC12264794, “Homoleptic complexes of titanium(IV) fused with O^N^O Schiff base derivatives: design, BSA–DNA interaction, molecular docking, DFT and cytotoxicity” (RSC Advances, 2025):

Legend:
HeLa cells [1] = assay: Flow cytometry cell cycle analysis by PI staining; format: cell-based, human; conditions: 48 h, complexes at IC50, cis-platin 5 μM
Procedure: A flow cytometer was also used to do the apoptotic assessment. HeLa cells (5 × 10^5) were seeded onto 6-well plates using Dulbecco's Modified Eagle Medium paper (DMEM) with 10% FBS. The plates were incubated overnight at 37 °C with 95% air and 5% CO2. […] Following trypsinization, the cells were collected, cleaned with PBS, and fixed for 24 hours at 2–6 °C in ice-cold 70% ethanol. Centrifugation was used to remove the ethanol, and cold PBS was used twice to wash the cell pellets. Later the cells were stained with propidium iodide (PI, 1 mg mL^−1) and incubated for 30 min. Flow cytometric analysis was performed using a FACS scanner and the Becton Dickinson cell search program at 595 nm and the distribution of cells in various cell cycle phases was determined.[69,70]
Through cell cycle analysis, the mechanism of cancer cell death caused by the complexes was evaluated. Anticancer drugs promote growth-inhibitory action in cancer cells by a variety of mechanisms, one of which is dysfunction in the regulation of the cell cycle.[32] For example, cis-platin inhibits DNA transcription in cells by stopping the cell cycle in the S and G2/M phases. PI staining and flow cytometry were used to examine the ability of the complexes to modify the cell cycle (Fig. 19).

HeLa cells [2] = assay: AO–EB staining assay; format: cell-based, human; conditions: IC50 concentration, 48 hours
Procedure: A dual AO–EB staining fluorescent labelling technique was performed utilizing the Gohel et al. protocol, HeLa cells were seeded in 6-well plates at a density of 5 × 10^4. They were grown in a humidified CO2 incubator at 37 °C until they reached 70–80% confluency. […] The media were removed from each well, and the cells underwent two gentle room-temperature PBS rinses. Following that, the cells were combined with 100 μL of ethidium bromide and acridine orange dye and incubated separately for 15 minutes at 37 °C after staining separately, and the plates were observed and images were captured with an Olympus Confocal Laser Scanning Microscope—Fluoview Fv3000.[67,68]
The most important requirement in the creation of novel anticancer drugs is to determine the apoplastic induction caused by the drug concerned. AO–EB assay staining aids in the differentiation of necrotic, apoptotic, and living cells. By means of AO–EB staining, the morphological alterations caused by Ti-1-IS to Ti-6-IBr in HeLa cells were investigated. AO can penetrate intact cell membranes and dye them green; this distinction is caused in early apoptotic as well as normal cells. In contrast, EB can only enter cells that have lost their ability to form membranes, leaving an orange stain behind, identifying them as necrotic or late apoptotic cells.

CT-DNA = assay: UV-vis absorption titration with CT-DNA; format: binding, calf
Procedure: The UV-vis titration technique was employed to conduct DNA binding investigations of the newly synthesized Ti(IV)complexes. The binding interactions between Ti(IV) complexes and CT-DNA 5 mM (5 × 10^−5 M) produced in PBS buffer were assessed in a 5 mM phosphate buffer (PBS) with a pH of 7.4. The ratio of UV absorbance of CT-DNA at each position, 260 and 280 nm, was confirmed. The concentration of each nucleotide was calculated using the molar absorption coefficient (6600 m^−1) of CT-DNA at 260 nm. Additional dilutions were made in 5 mM PBS buffer solution, and stock solutions of metal complexes were prepared in DMSO. DNA binding experiments were performed with a fixed concentration of the complex (20 μM) and increasing concentrations of CT-DNA (0–80 μM) in sample solutions to detect the CT-DNA absorbance peak.[41,42]
UV-vis spectra typically show a shift in wavelength and a change in absorption spectra as a result of the interaction of the Ti(IV) complexes with DNA. […] Then, using eqn (4), the binding characteristics for the aforementioned complexes, including binding constant (Kb) and binding sites, were determined.4 [drawing 4] where εa, εf, and εb represent the apparent extinction coefficient of the complex, the extinction coefficient of the complex in its free form and the extinction coefficient of the complex when completely bound to DNA.

| SMILES | G0/G1 phase (HeLa cells [1]) [%] | S Phase (HeLa cells [1]) [%] | Sub-G0 phase (HeLa cells [1]) [%] | Apoptosis induction by AO–EB staining (HeLa cells [2]) | Binding constant with DNA (CT-DNA) [M⁻¹] |
| --- | --- | --- | --- | --- | --- |
| COc1cccc(C=NN=C([O-])c2ccncc2)c1[O-].COc1cccc(C=NN=C([O-])c2ccncc2)c1[O-].[Ti+4] [Ti-3-IO] | 18.32 | 19.41 | 28.48 | apoptosis was triggered | – |
| [O-]C(=NN=Cc1cc(F)ccc1[O-])c1ccncc1.[O-]C(=NN=Cc1cc(F)ccc1[O-])c1ccncc1.[Ti+4] [Ti-4-IF] | – | – | – | – | 297000 |
| [O-]C(=NN=Cc1cc(Cl)ccc1[O-])c1ccncc1.[O-]C(=NN=Cc1cc(Cl)ccc1[O-])c1ccncc1.[Ti+4] [Ti-5-ICl] | 7.45 | 16.10 | 14.72 | apoptosis was triggered | – |
